Data published in patent US10954214B2 (Janssen Pharmaceutica NV, priority 2016, dated 2021).

Experiments:
[1] = biological target: full-length MALT1 protein (Strep-MALT1(1-824)-His) (Homo sapiens (Human), UniProt Q9UDY8); test: MALT1 Biochemical Protease Assay (Ac-LRSR-AMC substrate); conditions: 10 nM FL MALT1, 200 μM Ac-LRSR-AMC, 4 h at RT; read-out: MALT1_Biochemical activity (Ac-LRSR-amc) IC50
Method in brief: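 Fluorescence from AMC release off the quenched LRSR substrate was read after a 4 h reaction at RT. Values were normalised to no-enzyme and uninhibited controls and fitted for IC50 and Hill coefficient.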

[2] = tested on: IL10 secretion by TMD8 ABC-DLBCL cells; test: Human IL10 Mesoscale assay (TMD-8); format: cell-based; conditions: Homo sapiens, TMD8; TMD-8 cells, 24 h
Method in brief: (§1)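 After 24 h at 37 °C with test compounds (15 μM down to 58.6 nM, 9 twofold steps, 0.3% DMSO), IL6 and IL10 secreted by 100,000 OCI-LY3 or TMD8 cells per well were measured in supernatants with a Mesoscale immunoassay. Data were scaled between DMSO wells (high) and RN486 treatment (low).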

[3] = tested on: IL6 secretion by TMD8 ABC-DLBCL cells; test: Human IL6 Mesoscale assay (TMD-8); format: cell-based; conditions: Homo sapiens, TMD8; TMD-8 cells, 24 h
Method in brief: as §1

[4] = tested on: TMD8 cells; test: 4-day proliferation assay, TMD8; format: cell-based; conditions: Homo sapiens, 96 h, 4 days incubation, CellTiterGLO, read-out: Anti-proliferation: TMD-8 IC50
Procedure: (§2) To assess anti-proliferative effects, MALT1 inhibitor test compounds were tested in 4-day proliferation assays using three different DLBCL cell lines.
(§3) Cells should be kept between 0.5-2.5 million cells per mL during culturing and cells should be supplemented every 2-3 days with fresh 50 μM beta-mercaptoenthanol. No beta-mercaptoethanol is used during the proliferation assay. OCI-Ly7 cells were propagated in IMDM (ThermoFisher) supplemented with 10% fetal bovine serum (HyClone), 2 mM L-glutamine (Sigma Aldrich) and 50 μg/mL Gentamycin. Cell passage numbers should not exceed 30 (for OCI-Ly3 cells with passage number lower than 10 were used).
(§4) 10,000 TMD8, 10,000 OCI-Ly3 or 2,000 OCI-Ly7 cells were seeded in 100 μL media per well and incubated for 4 days at 37° C. and 5% CO2. Cell plating numbers were chosen based on growth curves to ensure linear cell growth. After 4 days of incubation 50 μL CellTiterGLO reagent (Promega) were added to each well and luminescence was measured on the Envision after 10 min of incubation at room temperature.
(§5) LC=median of the low control values
(§6) An estimate of the slope of the plot in terms of the Hill coefficient was also obtained.

[5] = tested on: OCI-Ly3 cells; test: 4-day proliferation assay, OCI-Ly3; format: cell-based, human; conditions: Homo sapiens, 96 h, 4 days incubation, CellTiterGLO, read-out: Anti-proliferation: OCI-LY-3 IC50
Procedure: as §2, §3, §4, §5, §6

[6] = tested on: IL10 secretion by OCI-LY3 ABC-DLBCL cells; test: Human IL10 Mesoscale assay (OCI-LY3); format: cell-based; conditions: Homo sapiens, 24 h
Method in brief: as §1

[7] = tested on: IL6 secretion by OCI-LY3 ABC-DLBCL cells; test: Human IL6 Mesoscale assay (OCI-LY3); format: cell-based; conditions: Homo sapiens, 24 h
Method in brief: as §1

Chain of full-length MALT1 protein (Strep-MALT1(1-824)-His) (Q9UDY8 whole entry): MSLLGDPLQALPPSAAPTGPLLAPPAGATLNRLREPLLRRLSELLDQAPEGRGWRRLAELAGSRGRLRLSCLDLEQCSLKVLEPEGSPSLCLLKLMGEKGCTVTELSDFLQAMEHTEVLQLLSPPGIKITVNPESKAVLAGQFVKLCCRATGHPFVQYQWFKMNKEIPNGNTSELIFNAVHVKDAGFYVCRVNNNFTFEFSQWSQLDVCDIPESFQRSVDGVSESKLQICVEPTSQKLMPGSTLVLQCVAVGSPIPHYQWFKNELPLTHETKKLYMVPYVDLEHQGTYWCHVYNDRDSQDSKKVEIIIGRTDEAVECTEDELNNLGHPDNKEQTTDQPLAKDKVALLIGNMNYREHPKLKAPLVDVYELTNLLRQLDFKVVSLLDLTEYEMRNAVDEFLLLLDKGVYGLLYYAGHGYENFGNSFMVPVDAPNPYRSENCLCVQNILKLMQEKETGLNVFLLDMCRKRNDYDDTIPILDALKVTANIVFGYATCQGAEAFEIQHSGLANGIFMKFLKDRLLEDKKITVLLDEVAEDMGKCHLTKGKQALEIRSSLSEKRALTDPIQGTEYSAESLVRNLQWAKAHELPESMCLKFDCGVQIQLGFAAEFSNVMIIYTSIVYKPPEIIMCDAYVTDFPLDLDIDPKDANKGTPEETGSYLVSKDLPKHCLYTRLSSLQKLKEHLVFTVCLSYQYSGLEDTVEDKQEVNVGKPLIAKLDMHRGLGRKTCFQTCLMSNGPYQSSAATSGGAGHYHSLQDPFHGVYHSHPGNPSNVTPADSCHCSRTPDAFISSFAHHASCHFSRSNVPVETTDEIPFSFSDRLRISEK

For `Cc1cnc2cccc(-n3ncc(C(=O)Nc4cnc(-n5nccn5)c(Cl)c4)c3C(F)(F)F)c2c1` [Cpd 65, N-(5-Chloro-6-(2H-1,2,3-triazol-2-yl)pyridin-3-yl)-1-(3-methylquinolin-5-yl)-5-(trifluoromethyl)-1H-pyrazole-4-carboxamide], which IC50 [1] is on record?
The IC50 was 60 nM.

What about the IC50 [2] of the same compound?
The IC50 was 120 nM.

What about the IC50 [3] of the same compound?
Its IC50 is 282 nM.

And the IC50 [4]?
Its IC50 is 10200 nM.

And the IC50 [5]?
The IC50 was 260 nM.

For `NC(=O)c1ncc(-n2ncc(C(=O)Nc3cnc(-n4nccn4)c(Cl)c3)c2C(F)(F)F)c2ccsc12` [Cpd 391, 4-(4-((5-chloro-6-(2H-1,2,3-triazol-2-yl)pyridin-3-yl)carbamoyl)-5-(trifluoromethyl)-1H-pyrazol-1-yl)thieno[2,3-c]pyridine-7-carboxamide], which IC50 [1] is on record?
Its IC50 is 7 nM.

What about the IC50 [2] of the same compound?
Its IC50 is 31 nM.

What about the IC50 [3] of the same compound?
Its IC50 is 45 nM.

And the IC50 [4]?
Its IC50 is 676 nM.

What about the IC50 [5] of the same compound?
Its IC50 is 505 nM.

What does the source list for `Cc1cc(NC(=O)c2cnn(-c3cncc4ccccc34)c2C(F)(F)F)cc(C(F)(F)F)n1` [Cpd 73, 1-(isoquinolin-4-yl)-N-(2-methyl-6-(trifluoromethyl)pyridin-4-yl)-5-(trifluoromethyl)-1H-pyrazole-4-carboxamide]?
IC50 [1]: 724 nM; IC50 [2]: 339 nM; IC50 [3]: 417 nM; IC50 [4]: ~11500 nM; IC50 [5]: 1950 nM

`N#Cc1cc(NC(=O)c2cnn(-c3cncc4ncccc34)c2C(F)(F)F)cnc1-n1nccn1` [Cpd 145, N-(5-cyano-6-(2H-1,2,3-triazol-2-yl)pyridin-3-yl)-1-(1,7-naphthyridin-5-yl)-5-(trifluoromethyl)-1H-pyrazole-4-carboxamide] was tested. Which IC50 [1] did it give?
The IC50 was 28 nM.

What about the IC50 [2] of the same compound?
Its IC50 is 47 nM.

What about the IC50 [3] of the same compound?
The IC50 was 126 nM.

What about the IC50 [4] of the same compound?
The IC50 was 4570 nM.

And the IC50 [5]?
The IC50 was 626 nM.

How did the IC50 [1] turn out when `N#Cc1cc(NC(=O)c2cnn(-c3cccc4ncccc34)c2C(F)(F)F)cnc1-n1nccn1` [Cpd 83, N-(5-cyano-6-(2H-1,2,3-triazol-2-yl)pyridin-3-yl)-1-(quinolin-5-yl)-5-(trifluoromethyl)-1H-pyrazole-4-carboxamide] was run?
The IC50 was 34 nM.

What about the IC50 [2] of the same compound?
The IC50 was 43 nM.

And the IC50 [3]?
The IC50 was 32 nM.

And the IC50 [4]?
The IC50 was roughly 8320 nM.

What about the IC50 [5] of the same compound?
The IC50 was 510 nM.

How did the IC50 [1] turn out when `CN1C(=O)COc2c(Cl)cc(NC(=O)c3cnn(-c4cncc5ccccc45)c3C(F)(F)F)cc21` [Cpd 97, N-(8-chloro-4-methyl-3-oxo-3,4-dihydro-2H-benzo[b][1,4]oxazin-6-yl)-1-(isoquinolin-4-yl)-5-(trifluoromethyl)-1H-pyrazole-4-carboxamide] was run?
Its IC50 is 209 nM.

What about the IC50 [2] of the same compound?
The IC50 was 257 nM.

What about the IC50 [3] of the same compound?
The IC50 was 575 nM.

What about the IC50 [4] of the same compound?
Its IC50 is roughly 5890 nM.

What about the IC50 [5] of the same compound?
Its IC50 is 3470 nM.

How did the IC50 [1] turn out when `N#Cc1cc(NC(=O)c2cnn(-c3ccc(F)c4nccn34)c2C(F)(F)F)cnc1-n1nccn1` [Cpd 204, N-(5-cyano-6-(2H-1,2,3-triazol-2-yl)pyridin-3-yl)-1-(8-fluoroimidazo[1,2-a]pyridin-5-yl)-5-(trifluoromethyl)-1H-pyrazole-4-carboxamide] was run?
The IC50 was 35 nM.

And the IC50 [2]?
The IC50 was 1150 nM.

And the IC50 [3]?
Its IC50 is 525 nM.

And the IC50 [4]?
Its IC50 is 5890 nM.

What about the IC50 [5] of the same compound?
The IC50 was 1720 nM.

Which results are given for `N#Cc1cc(NC(=O)c2cnn(-c3ccc(F)c4ccccc34)c2C(F)(F)F)cnc1-n1nccn1` [Cpd 312, N-(5-cyano-6-(2H-1,2,3-triazol-2-yl)pyridin-3-yl)-1-(4-fluoronaphthal-1-yl)-5-(trifluoromethyl)-1H-pyrazole-4-carboxamide]?
IC50 [1]: 49 nM; IC50 [2]: 2460 nM; IC50 [3]: 8320 nM; IC50 [4]: 501 nM; IC50 [5]: 516 nM

How did the IC50 [1] turn out when `N#Cc1cc(NC(=O)c2cnn(-c3cccc4ncccc34)c2C(F)(F)F)cnc1OC1CC1` [Cpd 88, N-(5-cyano-6-cyclopropoxypyridin-3-yl)-1-(quinolin-5-yl)-5-(trifluoromethyl)-1H-pyrazole-4-carboxamide] was run?
The IC50 was 107 nM.

And the IC50 [2]?
The IC50 was 209 nM.

And the IC50 [3]?
Its IC50 is 331 nM.

What about the IC50 [4] of the same compound?
Its IC50 is roughly 12000 nM.

What about the IC50 [5] of the same compound?
The IC50 was 1350 nM.

What does the source list for `CN1C(=O)COc2c(Cl)cc(NC(=O)c3cnn(-c4cccc5ncccc45)c3C(F)(F)F)cc21` [Cpd 95, N-(8-Chloro-4-methyl-3-oxo-3,4-dihydro-2H-benzo[b][1,4]oxazin-6-yl)-1-(quinolin-5-yl)-5-(trifluoromethyl)-1H-pyrazole-4-carboxamide]?
IC50 [1]: 117 nM; IC50 [2]: 302 nM; IC50 [3]: 646 nM; IC50 [4]: ~7940 nM; IC50 [5]: 3800 nM

For `N#Cc1cc(NC(=O)c2cnn(-c3ccnc4ccsc34)c2C(F)(F)F)cnc1-n1nccn1` [Cpd 128, N-(5-cyano-6-(2H-1,2,3-triazol-2-yl)pyridin-3-yl)-1-(thieno[3,2-b]pyridin-7-yl)-5-(trifluoromethyl)-1H-pyrazole-4-carboxamide], which IC50 [1] is on record?
Its IC50 is 16 nM.

And the IC50 [6]?
The IC50 was 36 nM.

And the IC50 [2]?
The IC50 was 105 nM.

What about the IC50 [7] of the same compound?
Its IC50 is 27 nM.

And the IC50 [3]?
The IC50 was 95 nM.

And the IC50 [5]?
Its IC50 is 188 nM.

Which IC50 [1] does the source give for `CC(C)Cc1c(C(=O)Nc2cnc(-n3nccn3)c(Cl)c2)cnn1-c1cccc2ncccc12` [Cpd 16, N-(5-Chloro-6-(2H-1,2,3-triazol-2-yl)pyridin-3-yl)-5-isobutyl-1-(quinolin-5-yl)-1H-pyrazole-4-carboxamide] here?
Its IC50 is 724 nM.

And the IC50 [3]?
The IC50 was 1480 nM.

And the IC50 [4]?
The IC50 was 10700 nM.

And the IC50 [5]?
Its IC50 is 580 nM.

Which results are given for `Cc1ccc2ncccc2c1-n1ncc(C(=O)Nc2cnc(-n3nccn3)c(Cl)c2)c1C(F)(F)F` [Cpd 27, N-(5-Chloro-6-(2H-1,2,3-triazol-2-yl)pyridin-3-yl)-1-(6-methylquinolin-5-yl)-5-(trifluoromethyl)-1H-pyrazole-4-carboxamide]?
IC50 [1]: 35 nM; IC50 [3]: 105 nM; IC50 [4]: 13800 nM; IC50 [5]: 1950 nM

How did the IC50 [1] turn out when `Cn1ccc(-c2ncc(NC(=O)c3cnn(-c4cccc5ccncc45)c3C(F)(F)F)cc2Cl)n1` [Cpd 21, N-(5-Chloro-6-(1-methyl-1H-pyrazol-3-yl)pyridin-3-yl)-1-(isoquinolin-8-yl)-5-(trifluoromethyl)-1H-pyrazole-4-carboxamide] was run?
The IC50 was 1440 nM.

What about the IC50 [3] of the same compound?
The IC50 was greater than 15000 nM.

And the IC50 [4]?
Its IC50 is greater than 20000 nM.

What about the IC50 [5] of the same compound?
Its IC50 is roughly 12900 nM.

How did the IC50 [1] turn out when `Cc1csc2c(-n3ncc(C(=O)Nc4cnc(-n5nccn5)c(C#N)c4)c3C(F)(F)F)ccnc12` [Cpd 310, N-(5-cyano-6-(2H-1,2,3-triazol-2-yl)pyridin-3-yl)-1-(3-methylthieno[3,2-b]pyridin-7-yl)-5-(trifluoromethyl)-1H-pyrazole-4-carboxamide] was run?
Its IC50 is 52 nM.

And the IC50 [6]?
The IC50 was 490 nM.

And the IC50 [7]?
Its IC50 is 646 nM.

And the IC50 [5]?
Its IC50 is 1270 nM.

With `O=C(Nc1cnc(-n2nccn2)c(Cl)c1)c1cnn(-c2cccc3c(C4CCN4)nccc23)c1C(F)(F)F` (centres unmarked) [Cpd 384, 1-(1-(azetidin-2-yl)isoquinolin-5-yl)-N-(5-chloro-6-(2H-1,2,3-triazol-2-yl)pyridin-3-yl)-5-(trifluoromethyl)-1H-pyrazole-4-carboxamide] as the compound, how does the IC50 [1] read?
The IC50 was 5890 nM.

What about the IC50 [6] of the same compound?
The IC50 was 14 nM.

And the IC50 [2]?
The IC50 was 123 nM.

And the IC50 [7]?
Its IC50 is 18 nM.

And the IC50 [3]?
The IC50 was 120 nM.

For `CC(O)c1ncc(-n2ncc(C(=O)Nc3cnc(-n4nccn4)c(Cl)c3)c2C(F)(F)F)c2ccccc12` (centres unmarked) [Cpd 371, N-(5-chloro-6-(2H-1,2,3-triazol-2-yl)pyridin-3-yl)-1-(1-(1-hydroxyethyl)isoquinolin-4-yl)-5-(trifluoromethyl)-1H-pyrazole-4-carboxamide], which IC50 [1] is on record?
Its IC50 is 69 nM.

And the IC50 [6]?
The IC50 was 18 nM.

And the IC50 [2]?
The IC50 was 25 nM.

And the IC50 [7]?
The IC50 was 18 nM.

What about the IC50 [3] of the same compound?
Its IC50 is 13 nM.

How did the IC50 [1] turn out when `N#Cc1cc(NC(=O)c2cnn(-c3cncc4ccccc34)c2C(F)(F)F)cnc1C(=O)NCCCCN` [Cpd 236, N-(4-aminobutyl)-3-cyano-5-(1-(isoquinolin-4-yl)-5-(trifluoromethyl)-1H-pyrazole-4-carboxamido)picolinamide] was run?
Its IC50 is 724 nM.

What about the IC50 [6] of the same compound?
The IC50 was 309 nM.

And the IC50 [2]?
The IC50 was 427 nM.

And the IC50 [7]?
Its IC50 is 380 nM.

What about the IC50 [3] of the same compound?
Its IC50 is 1380 nM.

What does the source list for `Cc1nc(-n2nccn2)c(Cl)cc1NC(=O)c1cnn(-c2cccc3nccn23)c1C(F)(F)F` [Cpd 194, N-(5-chloro-2-methyl-6-(2H-1,2,3-triazol-2-yl)pyridin-3-yl)-1-(imidazo[1,2-a]pyridin-5-yl)-5-(trifluoromethyl)-1H-pyrazole-4-carboxamide]?
IC50 [1]: 76 nM; IC50 [6]: 68 nM; IC50 [2]: 98 nM; IC50 [7]: 100 nM; IC50 [3]: 78 nM
